Where a SMILES comes first, the peptide text is derived from it.
biological target: T1, HLA-Cw06 (Homo sapiens, UniProt P10321, A176E/A330V/C350S/L171W/L180W/L218V/M285V/M309V/M331V/N104K/P208H/Q277E/Q291P/R121W/R243W/S101N/S123Y/S297R/T329A/T363A/V319A/V328M); assay: HLA class I competition cell-based binding assay
T1 construct: endogenous in cells

Structure (SMILES)	Ki [nM]
CC(C)C[C@H](NC(=O)CNC(=O)[C@H](CCCNC(=N)N)NC(=O)[C@H](Cc1ccc(O)cc1)NC(=O)[C@H](Cc1ccc(O)cc1)NC(=O)[C@H](C)NC(=O)[C@@H](NC(=O)[C@H](C)NC(=O)[C@@H](N)CC(N)=O)C(C)C)C(=O)O	10800
CC[C@H](C)[C@H](NC(=O)[C@H](CC(C)C)NC(=O)[C@H](CCCNC(=N)N)NC(=O)[C@H](C)NC(=O)[C@@H]1CCCN1C(=O)[C@H](CCCCN)NC(=O)[C@@H](N)CCCNC(=N)N)C(=O)N[C@H](C(=O)N[C@@H](Cc1ccccc1)C(=O)O)C(C)C (H-RKPARLIVF-OH; N-terminus and C-terminus assumed)	8280
CC(C)[C@H](NC(=O)CNC(=O)[C@H](CO)NC(=O)[C@H](C)NC(=O)[C@H](CCCNC(=N)N)NC(=O)[C@H](CS)NC(=O)[C@H](CCCNC(=N)N)NC(=O)[C@H](CCCNC(=N)N)NC(=O)[C@@H](N)Cc1ccc(O)cc1)C(=O)O	634
CC[C@H](C)[C@H](NC(=O)[C@@H](NC(=O)[C@@H](N)CCC(=O)O)C(C)C)C(=O)N[C@@H](CCCCN)C(=O)NCC(=O)NCC(=O)N[C@@H](CCCNC(=N)N)C(=O)N[C@@H](Cc1c[nH]cn1)C(=O)N[C@@H](CC(C)C)C(=O)O	12800
CC[C@H](C)[C@H](NC(=O)CNC(=O)[C@H](CCCNC(=N)N)NC(=O)[C@H](CCCNC(=N)N)NC(=O)CN)C(=O)N[C@@H](Cc1ccc(O)cc1)C(=O)N[C@@H](CCCNC(=N)N)C(=O)N[C@@H](Cc1ccccc1)C(=O)N[C@H](C(=O)O)C(C)C	576
CC(C)C[C@H](NC(=O)[C@@H](NC(=O)[C@H](CCCCN)NC(=O)[C@H](Cc1ccc(O)cc1)NC(=O)CNC(=O)[C@H](CCC(N)=O)NC(=O)[C@H](C)NC(=O)[C@H](C)N)C(C)C)C(=O)N[C@H](C(=O)O)C(C)C (H-AAQGYKVLV-OH; N-terminus and C-terminus assumed)	6320
CC(C)C[C@H](NC(=O)[C@H](CCCNC(=N)N)NC(=O)[C@@H](N)Cc1ccc(O)cc1)C(=O)NCC(=O)N[C@@H](C)C(=O)N[C@H](C(=O)N[C@@H](CCC(N)=O)C(=O)N[C@@H](CC(N)=O)C(=O)N[C@@H](CCC(=O)O)C(=O)N[C@H](C(=O)O)C(C)C)C(C)C	217
CC(C)C[C@H](NC(=O)[C@H](C)NC(=O)[C@H](CCCNC(=N)N)NC(=O)[C@H](C)N)C(=O)N[C@@H](C)C(=O)N[C@@H](Cc1c[nH]cn1)C(=O)NCC(=O)N[C@H](C(=O)N[C@@H](CCCNC(=N)N)C(=O)N[C@H](C(=O)O)C(C)C)C(C)C (H-ARALAHGVRV-OH; N-terminus and C-terminus assumed)	9880
CC[C@H](C)[C@H](NC(=O)[C@H](CCC(N)=O)NC(=O)CNC(=O)CNC(=O)CNC(=O)[C@@H]1CCCN1C(=O)[C@H](Cc1ccccc1)NC(=O)[C@H](CCCCN)NC(=O)[C@@H](N)C(C)C)C(=O)N[C@H](C(=O)O)C(C)C (H-VKFPGGGQIV-OH; N-terminus and C-terminus assumed)	417
CC[C@H](C)[C@H](N)C(=O)N[C@@H](CCCNC(=N)N)C(=O)N[C@@H](CO)C(=O)N[C@@H](CC(C)C)C(=O)N[C@H](C(=O)N[C@@H](CCC(=O)O)C(=O)N[C@@H](CCCNC(=N)N)C(=O)N[C@@H](CC(C)C)C(=O)N[C@@H](Cc1ccc(O)cc1)C(=O)N[C@H](C(=O)O)[C@@H](C)CC)[C@@H](C)O (H-IRSLTERLYI-OH; N-terminus and C-terminus assumed)	6220
CC(C)[C@H](NC(=O)[C@H](CCCNC(=N)N)NC(=O)[C@H](CCC(N)=O)NC(=O)CNC(=O)[C@@H]1CCCN1C(=O)[C@H](CO)NC(=O)[C@H](Cc1ccc(O)cc1)NC(=O)[C@H](CCC(N)=O)NC(=O)[C@@H](N)Cc1ccccc1)C(=O)O (H-FQYSPGQRV-OH)	387
CC(C)[C@H](NC(=O)CNC(=O)[C@H](CCCNC(=N)N)NC(=O)[C@@H](NC(=O)[C@H](CS)NC(=O)[C@@H](NC(=O)[C@H](C)NC(=O)[C@H](C)NC(=O)[C@H](CCCNC(=N)N)NC(=O)[C@@H](N)Cc1ccccc1)C(C)C)[C@@H](C)O)C(=O)O (H-FRAAVCTRGV-OH; N-terminus and C-terminus assumed)	486
CC(C)C[C@H](NC(=O)[C@@H](NC(=O)[C@H](CCCCN)NC(=O)[C@H](Cc1ccc(O)cc1)NC(=O)CNC(=O)[C@H](CCC(N)=O)NC(=O)[C@H](C)NC(=O)[C@H](C)NC(=O)[C@@H](N)Cc1ccc(O)cc1)C(C)C)C(=O)N[C@H](C(=O)O)C(C)C (H-YAAQGYKVLV-OH; N-terminus and C-terminus assumed)	9210
CC(C)C[C@H](NC(=O)[C@@H](NC(=O)[C@H](CCC(N)=O)NC(=O)[C@H](CC(C)C)NC(=O)[C@H](CCCNC(=N)N)NC(=O)[C@H](CC(=O)O)NC(=O)[C@H](Cc1ccccc1)NC(=O)[C@@H](NC(=O)[C@@H](N)C(C)C)[C@@H](C)O)C(C)C)C(=O)O	1130
CC[C@H](C)[C@H](NC(=O)[C@H](CC(C)C)NC(=O)[C@H](Cc1c[nH]cn1)NC(=O)[C@H](CCCNC(=N)N)NC(=O)CNC(=O)CNC(=O)[C@H](CCCCN)NC(=O)[C@@H](NC(=O)[C@@H](N)C(C)C)[C@@H](C)CC)C(=O)N[C@@H](Cc1ccccc1)C(=O)O	17500
CC[C@H](C)[C@H](NC(=O)[C@H](CC(C)C)NC(=O)[C@H](CCCNC(=N)N)NC(=O)[C@H](C)NC(=O)[C@@H]1CCCN1C(=O)[C@H](CCCCN)NC(=O)[C@H](CCCNC(=N)N)NC(=O)CN)C(=O)N[C@H](C(=O)O)C(C)C (H-GRKPARLIV-OH; N-terminus and C-terminus assumed)	2040

biological target: T2, DRB1*0101 (Homo sapiens, UniProt P01903+P01911, A100R/D57E/F55L/F60I/F76Y/I96L/L162R/M171V/P40L/Q125E/R42F/V115G/Y59C); assay: Competition binding assay using soluble HLA class II
T2 construct: endogenous in cells; host or cells: cell lysate

Structure (SMILES)	IC50 [nM]
CSCC[C@H](NC(=O)[C@H](CC(C)C)NC(=O)[C@H](C)NC(=O)[C@H](CC(=O)O)NC(=O)[C@@H](NC(=O)[C@H](C)NC(=O)[C@@H](NC(=O)[C@@H](NC(=O)[C@@H](NC(=O)[C@@H](NC(=O)[C@@H](N)CC(=O)O)C(C)C)C(C)C)C(C)C)C(C)C)[C@@H](C)O)C(=O)N[C@H](C(=O)NCC(=O)N[C@@H](Cc1ccc(O)cc1)C(=O)N[C@H](C(=O)O)[C@@H](C)O)[C@@H](C)O	456
CC[C@H](C)[C@H](NC(=O)[C@H](CC(N)=O)NC(=O)CNC(=O)[C@H](CC(C)C)NC(=O)[C@H](Cc1c[nH]c2ccccc12)NC(=O)[C@H](CO)NC(=O)[C@H](CC(N)=O)NC(=O)[C@@H](N)C(C)C)C(=O)N[C@H](C(=O)N[C@@H](CCSC)C(=O)N[C@@H](Cc1ccc(O)cc1)C(=O)N[C@@H](C)C(=O)N1CCC[C@H]1C(=O)N[C@H](C(=O)N[C@@H](CC(C)C)C(=O)O)[C@@H](C)O)[C@@H](C)CC	1.42
CC(C)C[C@H](NC(=O)[C@H](CCC(N)=O)NC(=O)[C@H](CO)NC(=O)[C@H](C)N)C(=O)N[C@@H](CO)C(=O)N[C@@H](C)C(=O)N1CCC[C@H]1C(=O)N[C@@H](CO)C(=O)N[C@@H](CC(C)C)C(=O)N[C@@H](CCCCN)C(=O)N[C@@H](C)C(=O)N[C@H](C(=O)N[C@@H](CS)C(=O)N[C@H](C(=O)N[C@H](C(=O)O)[C@@H](C)O)[C@@H](C)O)[C@@H](C)O	329
CC[C@H](C)[C@H](NC(=O)[C@H](Cc1ccc(O)cc1)NC(=O)CNC(=O)[C@H](CCSC)NC(=O)[C@H](CC(C)C)NC(=O)[C@H](CC(=O)O)NC(=O)[C@H](C)N)C(=O)N1CCC[C@H]1C(=O)N[C@@H](CC(C)C)C(=O)N[C@H](C(=O)NCC(=O)N[C@@H](C)C(=O)N1CCC[C@H]1C(=O)N[C@@H](CC(C)C)C(=O)NCC(=O)O)C(C)C	8330

From patent US20060093617A1, “Peptides for inducing a CTL and/or HTL response to hepatitis C virus” (Innogenetics, N.V., priority 2004, published 2006)
